Source: PubChem BioAssay AID1053146 (Broad Institute, 2014)

Tested on: HepG2 BODIPY-LDL uptake, high-content imaging
Assay: LDL uptake enhancers in HepG2, dose response, imaging, BODIPY-LDL, cherry-pick (AID 1053146)

EC50 [nM] | Structure (SMILES)
4600 | CN1C(=O)c2cc(NC(=O)c3ccc(C(F)(F)F)cc3)ccc2OC[C@@H]2O[C@@H](CC(=O)NC3Cc4ccccc4C3)CC[C@@H]21
1100 | CN1C(=O)c2cc(NC(=O)c3ccc(C(F)(F)F)cc3)ccc2OC[C@@H]2O[C@H](CC(=O)NC3Cc4ccccc4C3)CC[C@@H]21
